Measurements taken from publication PMC10997755, “Discovery of a small-molecule inhibitor that traps Polθ on DNA and synergizes with PARP inhibitors” (Nature Communications, 2024).
Values joined by “and” are separate entries in the source; they are usually repeats but may differ in a detail not shown here. Equal entries are not always repeated.

Tests used:
[1] = test system: PolθΔcen:DNA/DNA complex; experiment: EcoRI endonuclease protection assay; type: biochemical; conditions: for i (%), normalized to 100%, ave(%) / i (%), replicates: 14 nt i; for i+1 (%) normalized to 100%, ave(%) / i+1 (%), replicates: 15 nt i+1;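 on i (%), replicates: i is primer-template DNA within pre-catalytic complexes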;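 on i+1 (%), replicates: i+1 is one-nucleotide extended DNA within post-catalytic complexes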
Experimental: (§1) EcoRI and KpnI endonucleases assay: 25 nM 5’-^32P radiolabeled primer-template DNA Sc15-EcoRI (5’-^32P LM3-EcoRI/LM4-EcoRI) or Sc19-KpnI (5’-^32P LM11-Kpn/LM12-Kpn) in reaction buffer (25 mM Tris-HCl pH 7.5, 10 mM MgCl2, 10% glycerol, 0.1 mg/mL BSA, 0,01% igepal, 1 mM DTT) were incubated in the presence or in the absence of 50 nM Polθ-pol, 100 μM ddCTP, and 10 μM inhibitors, as indicated, for 5 min at room temperature. Next, 0.08 U/μL EcoRI or KpnI together with 500 nM “trapping” DNA Sc14 (RP559/RP702) were added and incubated for further 0–40 min at 30 °C as indicated. 10 nM PolθΔcen and FL-Polθ and 25 nM Sc15-EcoRI and Sc19-Kpn were probed with 0.04 U/μL EcoRI or KpnI (both from New England Biolabs) using the same conditions. Reactions were stopped by addition of formamide loading buffer with 50 mM EDTA, resolved in denaturing 20% urea PAAG and analyzed using Typhoon PhosphorImager (GE Amersham). Quantification was done in ImageQuant TL software. All quantified experiments were performed in triplicates and plotted as mean with ± s.d using GraphPad Prism 9 software.

[2] = molecular target: T1, Fl-Polθ:DNA/DNA complex (Homo sapiens, UniProt O75417); experiment: EcoRI endonuclease protection assay; type: biochemical;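 on i+1 (%) (15 nt), replicates #1-#3: i+1 is one-nucleotide extended DNA within post-catalytic complexes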
T1 construct: recombinant human full-length Polθ (Fl-Polθ); made in house
T1 sequence (O75417 whole entry, one chain of several): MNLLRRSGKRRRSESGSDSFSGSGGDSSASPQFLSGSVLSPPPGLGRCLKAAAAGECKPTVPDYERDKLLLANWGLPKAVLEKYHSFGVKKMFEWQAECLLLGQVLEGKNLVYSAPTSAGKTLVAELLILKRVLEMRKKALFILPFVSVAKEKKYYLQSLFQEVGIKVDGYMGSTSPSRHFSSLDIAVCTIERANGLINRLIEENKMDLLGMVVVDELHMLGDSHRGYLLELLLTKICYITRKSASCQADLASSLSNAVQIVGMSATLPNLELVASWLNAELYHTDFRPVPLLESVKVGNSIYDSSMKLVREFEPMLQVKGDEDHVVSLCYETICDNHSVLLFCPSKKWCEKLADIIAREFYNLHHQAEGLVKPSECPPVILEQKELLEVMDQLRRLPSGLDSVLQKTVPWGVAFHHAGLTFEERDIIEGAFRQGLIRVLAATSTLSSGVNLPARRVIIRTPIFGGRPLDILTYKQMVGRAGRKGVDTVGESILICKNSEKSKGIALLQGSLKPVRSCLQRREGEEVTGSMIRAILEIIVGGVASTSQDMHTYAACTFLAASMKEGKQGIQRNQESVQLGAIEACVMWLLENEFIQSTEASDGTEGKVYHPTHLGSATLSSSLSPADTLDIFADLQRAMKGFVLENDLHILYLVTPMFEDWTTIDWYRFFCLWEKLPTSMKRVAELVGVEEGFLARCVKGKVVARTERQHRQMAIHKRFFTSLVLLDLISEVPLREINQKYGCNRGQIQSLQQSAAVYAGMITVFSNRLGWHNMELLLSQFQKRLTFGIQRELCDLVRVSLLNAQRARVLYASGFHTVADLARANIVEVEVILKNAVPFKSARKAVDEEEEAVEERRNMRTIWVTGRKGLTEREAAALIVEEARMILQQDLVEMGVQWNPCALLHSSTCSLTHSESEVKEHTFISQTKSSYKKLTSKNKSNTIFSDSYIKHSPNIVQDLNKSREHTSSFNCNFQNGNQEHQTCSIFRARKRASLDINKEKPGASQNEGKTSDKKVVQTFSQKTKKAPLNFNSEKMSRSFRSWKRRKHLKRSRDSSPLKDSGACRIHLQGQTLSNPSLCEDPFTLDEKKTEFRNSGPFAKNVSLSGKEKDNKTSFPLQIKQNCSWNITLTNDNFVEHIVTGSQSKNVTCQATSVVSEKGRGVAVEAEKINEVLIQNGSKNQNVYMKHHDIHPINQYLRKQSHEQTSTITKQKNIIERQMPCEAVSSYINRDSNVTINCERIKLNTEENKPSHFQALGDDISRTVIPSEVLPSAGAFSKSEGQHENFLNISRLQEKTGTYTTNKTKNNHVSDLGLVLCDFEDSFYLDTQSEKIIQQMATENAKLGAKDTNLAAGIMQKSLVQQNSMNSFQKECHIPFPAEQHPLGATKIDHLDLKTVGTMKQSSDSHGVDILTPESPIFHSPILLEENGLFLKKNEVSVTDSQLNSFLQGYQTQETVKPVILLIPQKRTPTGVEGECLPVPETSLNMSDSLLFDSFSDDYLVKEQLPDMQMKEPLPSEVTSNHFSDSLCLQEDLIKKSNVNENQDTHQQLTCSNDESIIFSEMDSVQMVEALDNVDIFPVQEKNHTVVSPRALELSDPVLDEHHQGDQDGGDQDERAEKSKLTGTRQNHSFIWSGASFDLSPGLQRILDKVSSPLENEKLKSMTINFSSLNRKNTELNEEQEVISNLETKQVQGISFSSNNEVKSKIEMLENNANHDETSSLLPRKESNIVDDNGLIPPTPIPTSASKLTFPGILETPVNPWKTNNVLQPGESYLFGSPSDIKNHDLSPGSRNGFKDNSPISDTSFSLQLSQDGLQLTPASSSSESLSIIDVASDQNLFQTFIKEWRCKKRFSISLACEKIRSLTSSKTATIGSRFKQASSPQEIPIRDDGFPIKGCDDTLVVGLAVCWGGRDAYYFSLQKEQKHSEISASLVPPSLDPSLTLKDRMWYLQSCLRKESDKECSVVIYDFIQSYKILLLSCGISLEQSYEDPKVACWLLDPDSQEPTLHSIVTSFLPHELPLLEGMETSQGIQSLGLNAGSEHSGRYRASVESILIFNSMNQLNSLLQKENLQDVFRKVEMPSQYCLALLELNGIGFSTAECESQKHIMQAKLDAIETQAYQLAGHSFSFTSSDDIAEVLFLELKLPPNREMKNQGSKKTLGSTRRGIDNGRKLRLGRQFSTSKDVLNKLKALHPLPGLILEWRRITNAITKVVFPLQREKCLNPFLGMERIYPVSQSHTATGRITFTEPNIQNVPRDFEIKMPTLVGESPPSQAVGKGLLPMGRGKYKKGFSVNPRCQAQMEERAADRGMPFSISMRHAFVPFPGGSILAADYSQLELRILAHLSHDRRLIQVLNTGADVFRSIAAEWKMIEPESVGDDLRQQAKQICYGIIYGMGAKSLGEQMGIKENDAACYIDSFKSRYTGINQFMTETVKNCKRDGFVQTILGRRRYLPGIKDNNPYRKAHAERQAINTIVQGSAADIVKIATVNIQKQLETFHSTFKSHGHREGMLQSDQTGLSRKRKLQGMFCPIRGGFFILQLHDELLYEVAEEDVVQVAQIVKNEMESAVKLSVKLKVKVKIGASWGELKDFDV
Experimental: as §1

[3] = Eco+PolqDcen+ddC+RTx152, 2.5min

With `CN1CCN(c2cc(C(F)(F)F)cc(C(F)(F)F)c2OC(=O)N(C)c2ccc(F)cc2)C1=O` [RTx-152] the “EcoRI cleavage %, ave” value [1, 3] was 9.7%, the “EcoRI cleavage %, replicates” value [1, 3] was 11.0% and 8.0% and 10.0% and the “EcoRI cleavage %, ave” value ([1]; Eco+PolqDcen+ddC+RTx152, 5min) was 14.0%. The “EcoRI cleavage %, replicates” value ([1]; Eco+PolqDcen+ddC+RTx152, 5min) was 17.0% and 12.0% and 13.0%, the “EcoRI cleavage %, ave” value ([1]; Eco+PolqDcen+ddC+RTx152, 10min) was 16.7% and the “EcoRI cleavage %, replicates” value ([1]; Eco+PolqDcen+ddC+RTx152, 10min) was 21.0% and 14.0% and 15.0%. For the same compound, the “i (%), normalized to 100%, ave(%)” value ([1]; PolqDcen+ddC+152, 2.5 min) was 100.0%, the “i (%), replicates” value ([1]; PolqDcen+ddC+152, 2.5 min) was 50.3% and 44.4% and 42.8% and the “i+1 (%) normalized to 100%, ave(%)” value ([1]; PolqDcen+ddC+152, 2.5 min) was 100.0%. For the same compound, the “i+1 (%), replicates” value ([1]; PolqDcen+ddC+152, 2.5 min) was 20.4% and 24.4% and 22.1%, the “i (%), normalized to 100%, ave(%)” value ([1]; PolqDcen+ddC+152, 5 min) was 86.1% and the “i (%), replicates” value ([1]; PolqDcen+ddC+152, 5 min) was 40.2% and 38.5% and 39.7%. The “i+1 (%) normalized to 100%, ave(%)” value ([1]; PolqDcen+ddC+152, 5 min) was 111.1%, the “i+1 (%), replicates” value ([1]; PolqDcen+ddC+152, 5 min) was 23.8% (2×) and 26.6% and the “i (%), normalized to 100%, ave(%)” value ([1]; PolqDcen+ddC+152, 10 min) was 66.5%. The “i (%), replicates” value ([1]; PolqDcen+ddC+152, 10 min) was 33.3% and 25.6% and 32.6%, the “i+1 (%) normalized to 100%, ave(%)” value ([1]; PolqDcen+ddC+152, 10 min) was 137.8% and the “i+1 (%), replicates” value ([1]; PolqDcen+ddC+152, 10 min) was 25.8% and 38.6% and 27.7%. The “EcoRI cleavage %, ave” value ([2]; Eco+FL+ddC+RTx152, 2.5min) was 15.4%, the “EcoRI cleavage %, replicates #1-#3” value ([2]; Eco+FL+ddC+RTx152, 2.5min) was 16.1% and 15.5% and 14.7% and the “EcoRI cleavage %, ave” value ([2]; Eco+FL+ddC+RTx152, 5min) was 27.7%. The “EcoRI cleavage %, replicates #1-#3” value ([2]; Eco+FL+ddC+RTx152, 5min) was 28.7% and 27.4% and 27.0%, the “EcoRI cleavage %, ave” value ([2]; Eco+FL+ddC+RTx152, 10min) was 38.7% and the “EcoRI cleavage %, replicates #1-#3” value ([2]; Eco+FL+ddC+RTx152, 10min) was 39.6% and 39.0% and 37.5%. For the same compound, the “i (%) (14 nt), replicates #1-#3” value ([2]; FL+ddC+152, 2.5min) was 45.9% and 45.3% and 45.1%, the “i (%), normalized to 100%, ave(%)” value ([2]; FL+ddC+152, 2.5min) was 100.0% and the “i+1 (%) (15 nt), replicates #1-#3” value ([2]; FL+ddC+152, 2.5min) was 24.5% and 25.2% and 24.4%. The “i+1 (%) normalized to 100%, ave(%)” value ([2]; FL+ddC+152, 2.5min) was 100.0%, the “i (%) (14 nt), replicates #1-#3” value ([2]; FL+ddC+152, 5min) was 32.7% and 32.3% and 32.8% and the “i (%), normalized to 100%, ave(%)” value ([2]; FL+ddC+152, 5min) was 71.7%. For the same compound, the “i+1 (%) (15 nt), replicates #1-#3” value ([2]; FL+ddC+152, 5min) was 24.7% and 27.0% and 24.6%, the “i+1 (%) normalized to 100%, ave(%)” value ([2]; FL+ddC+152, 5min) was 103.0% and the “i (%) (14 nt), replicates #1-#3” value ([2]; FL+ddC+152, 10min) was 19.6% and 20.0% and 17.7%. For the same compound, the “i (%), normalized to 100%, ave(%)” value ([2]; FL+ddC+152, 10min) was 42.0%, the “i+1 (%) (15 nt), replicates #1-#3” value ([2]; FL+ddC+152, 10min) was 27.5% and 27.2% and 25.6% and the “i+1 (%) normalized to 100%, ave(%)” value ([2]; FL+ddC+152, 10min) was 108.3%. For the same compound, the “post-catalytic complexes (i + 1), EcoRI cleavage” value ([2]; Fl-Polθ) was “fully resistant to EcoRI cleavage”.
